The subject of the test is Broad 7084-01 inhibitor HTS, set 2. Nature of the test: inhibitors in Broad screen 7084-01, set 2 (AID 977613).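 Further: host cells are infected with parasite promastigotes that become internalized.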

We go through 64 compounds from PubChem BioAssay AID977613 (Broad Institute, 2014).

Each structure is given as a SMILES string. The source made the active and inactive calls. How the calls were made is not given here.

As to `O=C(CC1CC1)N1CC(=O)N2[C@H](CO)[C@@H](c3ccc(/C=C/c4ccccc4)cc3)[C@@H]2C1`, the active concentration was > 10 µM (inactive). Then `COc1ccc(C#Cc2ccc([C@H]3[C@H]4CN(C(=O)c5ccc(F)cc5)CC(=O)N4[C@H]3CO)cc2)cc1`, with > 10 µM (inactive). Then `CN1C[C@H]2[C@@H](c3ccccc31)[C@H](CO)N2Cc1ccccc1Cl`, with > 10 µM (inactive); and `N#C[C@H]1[C@H](c2ccccc2-c2ccccc2)[C@@H](CO)N1C(=O)Cc1ccncc1`, with > 10 µM (inactive). Then `CN(C)CC#Cc1ccc([C@@H]2[C@@H](CO)N3C(=O)CN(C(=O)CN(C)C)C[C@H]23)cc1`, with > 10 µM (inactive); and `O=C(NC1CCCCC1)N1CC(=O)N2[C@H](C1)[C@H](c1ccc(-c3ccncc3)cc1)[C@@H]2CO`, with > 10 µM (inactive). On to `COc1ccccc1-c1ccc2n(c1=O)C[C@H]1[C@H](CO)[C@@H](C(=O)NCc3ccccc3Cl)N[C@@H]21`, for which the active concentration is > 10 µM (inactive). Take `O=C(CC1CC1)N1CC(=O)N2[C@H](CO)[C@H](c3ccc(C#Cc4cccc(F)c4)cc3)[C@H]2C1`: the active concentration was > 10 µM (inactive).

As for `COc1cccc(NC(=O)N2C[C@@H](O)COC[C@H]3O[C@@H](CC(=O)NC4CCC4)CC[C@@H]32)c1`, the active concentration is > 10 µM (inactive). Then `O=C1CNC[C@H]2[C@H](c3ccc(C4=CCCC4)cc3)[C@@H](CO)N12`, with > 10 µM (inactive). For `O=C1CNC[C@@H]2[C@H](c3ccc(C#CC4CCCCC4)cc3)[C@@H](CO)N12` the value was > 10 µM (inactive); for `O=C(C[C@@H]1CC[C@@H]2[C@H](COC[C@H](O)CN2C(=O)c2ccc(F)cc2)O1)NCc1cccc(F)c1`, > 10 µM (inactive). For `C/C=C/c1ccc([C@H]2[C@@H](CO)N(C(=O)CN(C)C)C23CN(C(=O)C2CCC2)C3)cc1`, the active concentration is > 10 µM (inactive). Regarding `O=C(C[C@H]1CC[C@@H]2[C@H](COC[C@@H](O)CN2S(=O)(=O)c2cccc(Cl)c2)O1)NC1CCC1`, the active concentration is > 10 µM (inactive).

As to `O=C(C[C@H]1CC[C@H]2[C@@H](COC[C@H](O)CN2S(=O)(=O)c2cccc(Cl)c2)O1)Nc1ccc(-c2ccccc2)cc1`, the active concentration is > 10 µM (inactive). `CCCC#Cc1ccc([C@H]2[C@@H](CO)N3C(=O)CN(C(=O)CN4CCOCC4)C[C@@H]23)cc1`: the active concentration was > 10 µM (inactive).

Take `CC(=O)N1CC2(C1)[C@H](c1ccc(-c3cccc(C#N)c3)cc1)[C@H](CO)N2CCC(F)(F)F`: the active concentration is > 10 µM (inactive).

Consider `CC=Cc1ccc2n(c1=O)C[C@@H]1[C@@H](CO)[C@H](C(=O)NC3CCC3)[C@H]2N1S(=O)(=O)c1cn(C)cn1` (mixture of isomers), for which the active concentration is > 10 µM (inactive). Then `C/C=C/c1ccc([C@@H]2[C@@H](CO)N3C(=O)CN(S(=O)(=O)c4ccccc4)C[C@H]23)cc1`, with > 10 µM (inactive); and `O=C(C[C@@H]1CC[C@@H]2[C@H](COC[C@@H](O)CN2Cc2ccc(Cl)cc2)O1)NCc1ccccc1Cl`, with > 10 µM (inactive); and `CCCNC(=O)N1CC2(C1)CN(Cc1ccc(F)cc1)[C@H](CO)c1[nH]c3cc(OC)ccc3c12`, with > 10 µM (inactive).

In the case of `CC(C)NC(=O)N1[C@H](CO)[C@H](c2ccccc2)C12CN(C(=O)Cc1cccnc1)C2`, the active concentration was > 10 µM (inactive). Then `O=C([C@@H]1[C@@H](CO)[C@@H]2Cn3c(cccc3=O)[C@H]1N2CC1CC1)N1CCc2ccccc2C1`, with > 10 µM (inactive); and `CCCNC(=O)N1CC(=O)N2[C@H](CO)[C@H](c3ccc(C#CCC4CCCC4)cc3)[C@@H]2C1`, with > 10 µM (inactive); and `CCNC(=O)Nc1ccc2c(c1)C(=O)N(C)[C@H]1CC[C@H](CC(=O)N[C@@H](C)c3ccccc3)O[C@H]1CO2`, with > 10 µM (inactive). On to `O=C(C[C@H]1CC[C@@H]2[C@H](COC[C@@H](O)CN2S(=O)(=O)c2cccc(F)c2)O1)Nc1ccc(-c2ccccc2)cc1`, for which the active concentration is > 10 µM (inactive).

As for `O=C(C[C@H]1CC[C@H]2[C@@H](COC[C@@H](O)CN2C(=O)c2ccccc2)O1)Nc1ccc(-c2ccccc2)cc1`, the active concentration was > 10 µM (inactive). Then `CCS(=O)(=O)N1CC(=O)N2[C@H](CO)[C@@H](c3ccc(C#CC4CCCCC4)cc3)[C@H]2C1`, with > 10 µM (inactive); and `CC(C)NC(=O)Nc1ccc2c(c1)C(=O)N(C)[C@H]1CC[C@@H](CC(=O)NCc3ccc(F)cc3)O[C@H]1CO2`, with > 10 µM (inactive); and `CC(C)(O)C#Cc1ccc([C@@H]2[C@H](CO)N3CCCCN(S(C)(=O)=O)C[C@@H]23)cc1`, with > 10 µM (inactive). Then `CCCC#Cc1ccc([C@@H]2[C@H]3CN(S(=O)(=O)c4ccccc4C)CC(=O)N3[C@H]2CO)cc1`, with > 10 µM (inactive); and `COc1ccc2c3c([nH]c2c1)[C@@H](CO)N(C(=O)Nc1ccc(F)cc1)CC31CN(Cc2cc(-c3ccccc3)on2)C1`, with > 10 µM (inactive); and `O=C(C[C@@H]1CC[C@H]2[C@@H](COC[C@H](O)CN2C(=O)c2ccncc2)O1)NCc1ccc(-c2ccccc2)cc1`, with > 10 µM (inactive).

In the case of `CN1[C@H](CO)[C@@H]2c3ccccc3N(C(=O)c3ccc(F)cc3)C[C@@H]21`, the active concentration is > 10 µM (inactive). For `O=C(C1CCC1)N1CC2(C1)[C@@H](c1ccccc1)[C@@H](CO)N2C(=O)c1ccccn1` the value was less than 10 µM; for `O=C(C[C@@H]1CC[C@H]2[C@@H](COC[C@H](O)CN2CC2CCOCC2)O1)NCC1CCCCC1`, > 10 µM (inactive); for `COc1cccc(-c2ccc3c(c2)[C@H]2[C@H](CCN2S(=O)(=O)c2ccccc2C)[C@@H](CO)N3)c1`, > 10 µM (inactive). Then `CCCNC(=O)N1[C@H](C#N)[C@H](c2ccccc2C2=CCCCC2)[C@@H]1CO`, with > 10 µM (inactive). For `N#C[C@H]1[C@@H](c2ccccc2-c2ccccc2F)[C@H](CO)N1C(=O)C1CCC1` the value was > 10 µM (inactive). For `COCC(=O)N1[C@H](C#N)[C@@H](c2ccccc2-c2cccc(C)c2)[C@@H]1CO`, the active concentration was > 10 µM (inactive).

In the case of `COc1ccc(NC(=O)N2CCCCN3[C@@H](CO)[C@H](c4ccc(-c5ccccc5F)cc4)[C@@H]3C2)cc1`, the active concentration is > 10 µM (inactive). Then `COc1cccc(-c2ccccc2[C@H]2[C@@H](C#N)N(C(=O)c3ccccn3)[C@@H]2CO)c1`, with > 10 µM (inactive); and `O=C(c1ccccc1)N1CC(=O)N2[C@H](C1)[C@@H](c1ccc(-c3ccccc3)cc1)[C@@H]2CO`, with > 10 µM (inactive); and `COC(=O)C[C@H]1CC[C@@H]2[C@H](COc3ccc(NS(=O)(=O)c4ccccc4Cl)cc3C(=O)N2C)O1`, with > 10 µM (inactive). Then `CN1C(=O)c2cc(NC(=O)c3cccc(F)c3)ccc2OC[C@H]2O[C@@H](CC(=O)NCC3CCCCC3)CC[C@@H]21`, with > 10 µM (inactive); and `CC(=O)N1CC[C@@H]2[C@H]1c1cc(-c3ccc(F)cc3)ccc1N[C@@H]2CO`, with > 10 µM (inactive); and `CCCNC(=O)N1[C@@H](CO)[C@H](c2ccccc2)C12CN(C(=O)C1CCCCC1)C2`, with > 10 µM (inactive). For `O=C(c1cnccn1)N1CC(=O)N2[C@H](CO)[C@@H](c3ccc(C#CC4CC4)cc3)[C@H]2C1` the value was > 10 µM (inactive).

For the compound `O=C(C[C@H]1CC[C@@H]2[C@H](COC[C@H](O)CN2Cc2cc(F)cc(F)c2)O1)NC1CCC1`, the active concentration is > 10 µM (inactive). For `O=C(Nc1ccccc1)N1CC(=O)N2[C@@H](CO)[C@H](c3ccc(C#CC4CCCCC4)cc3)[C@@H]2C1` the value was > 10 µM (inactive). For `COCC(=O)N1[C@@H]2CNc3ccccc3[C@@H]2[C@@H]1CO` the value was > 10 µM (inactive); for `CS(=O)(=O)N1[C@@H]2c3ccc(C4=CCCC4)c(=O)n3C[C@@H]2[C@@H](CO)[C@@H]1C(=O)NCCc1ccncc1`, > 10 µM (inactive).

Take `CCCNC(=O)N1CC(=O)N2[C@H](C1)[C@H](c1ccc(C#CCC3CCCC3)cc1)[C@@H]2CO`: the active concentration was > 10 µM (inactive). For `O=S(=O)(Cc1ccccc1)N1[C@H](CO)[C@@H](c2ccccc2)C12CN(CCC(F)(F)F)C2`, the active concentration was > 10 µM (inactive).

Regarding `CN(C)C(=O)C[C@@H]1CC[C@H]2[C@@H](COC[C@@H](O)CN2CC2CC2)O1`, the active concentration was > 10 µM (inactive).

Take `O=C(C[C@@H]1CC[C@H]2[C@@H](COC[C@@H](O)CN2Cc2ccc3c(c2)OCO3)O1)Nc1ccccc1`: the active concentration was > 10 µM (inactive). As for `CCS(=O)(=O)N1CC2(C1)[C@H](c1ccccc1)[C@@H](CO)N2C(=O)c1ccccc1`, the active concentration was > 10 µM (inactive). For `COc1ccc(CN2[C@H](CO)[C@H]3c4ccccc4NC[C@H]32)cc1` the value was less than 10 µM; for `O=C(Nc1ccc(F)cc1)N1CC(=O)N2[C@H](CO)[C@H](c3ccc(C#Cc4cccnc4)cc3)[C@H]2C1`, > 10 µM (inactive); for `COc1ccc2c3c([nH]c2c1)[C@@H](CO)NCC31CN(Cc2cc(F)ccc2F)C1`, > 10 µM (inactive). For `O=C(C1CCCCC1)N1CC(=O)N2[C@@H](CO)[C@@H](c3ccc(-c4ccccc4F)cc3)[C@@H]2C1` the value was > 10 µM (inactive); for `CC=Cc1ccc2n(c1=O)C[C@H]1[C@H](CO)[C@@H](C(=O)Nc3ccc(-c4ccccc4)cc3)[C@@H]2N1C(=O)CC` (mixture of isomers), > 10 µM (inactive); for `CCc1csc(N2[C@H](C#N)[C@H](c3ccccc3-c3ccc(F)cc3)[C@H]2CO)n1`, > 10 µM (inactive). Then `CCNC(=O)C[C@@H]1CC[C@H]2[C@@H](COC[C@@H](O)CN2C(=O)C2CC2)O1`, with > 10 µM (inactive).
